Among the data in ChEMBL document CHEMBL3399979, “Discovery of novel Bruton's tyrosine kinase (BTK) inhibitors bearing a pyrrolo[2,3-d]pyrimidine scaffold” (Bioorg Med Chem, 2015) are IC50 values, retold here.

Experiment [1] deals with T1, Tyrosine-protein kinase BTK (Homo sapiens, UniProt Q06187). The experiment is described as follows: Inhibition of BTK (unknown origin) after 1 hr by TR-FRET analysis.
The target in experiment [2] is T1, Tyrosine-protein kinase BTK. The experiment is described as follows: Inhibition of BTK in human Ramos cells after 20 mins by fluorescence assay. Format: cell-based.

Each structure is given as a SMILES string.

T1 sequence (Q06187 whole entry): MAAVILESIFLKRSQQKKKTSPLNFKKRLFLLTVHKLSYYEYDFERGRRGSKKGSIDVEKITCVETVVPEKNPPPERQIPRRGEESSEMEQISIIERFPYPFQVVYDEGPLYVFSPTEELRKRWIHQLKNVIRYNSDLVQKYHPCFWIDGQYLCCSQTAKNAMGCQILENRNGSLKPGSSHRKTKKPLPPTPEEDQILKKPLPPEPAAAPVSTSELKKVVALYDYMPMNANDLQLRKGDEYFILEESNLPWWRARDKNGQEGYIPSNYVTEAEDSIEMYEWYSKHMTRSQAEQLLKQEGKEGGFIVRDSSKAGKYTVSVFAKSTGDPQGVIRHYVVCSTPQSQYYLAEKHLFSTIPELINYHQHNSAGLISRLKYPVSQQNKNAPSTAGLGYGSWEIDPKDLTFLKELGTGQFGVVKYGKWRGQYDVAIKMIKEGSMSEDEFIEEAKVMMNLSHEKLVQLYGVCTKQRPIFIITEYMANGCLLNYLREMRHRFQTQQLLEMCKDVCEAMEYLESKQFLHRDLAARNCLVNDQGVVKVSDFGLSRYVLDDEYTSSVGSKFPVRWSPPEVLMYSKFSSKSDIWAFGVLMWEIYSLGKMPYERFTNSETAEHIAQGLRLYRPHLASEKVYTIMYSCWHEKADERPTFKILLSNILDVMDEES

One may read the IC50 as the concentration that inhibits the measured activity by half. The low end stands for greater potency, the high end for weaker potency. As for `O=c1c2c(F)cc(C3CC3)cc2ccn1-c1cccc(-c2ncnc3[nH]c(C4=CCN(c5ncccn5)CC4)cc23)c1CO`, the IC50 in experiment [1] was determined as 45.3 nM; in experiment [2], 69.7 nM.

Take `CN(C)C(=O)c1cccc(-c2cc3c(-c4cccc(-n5ccc6cc(C7CC7)cc(F)c6c5=O)c4CO)ncnc3[nH]2)c1`: the values for the IC50 in experiment [1] and in experiment [2] were 69 nM and 87.3 nM, respectively.

Consider `CC(=O)N1CC=C(c2cc3c(-c4cccc(-n5ccc6cc(C7CC7)cc(F)c6c5=O)c4CO)ncnc3[nH]2)CC1`, for which the half-maximal inhibitory concentration (IC50) came out at 15.3 nM in experiment [1] and 21.4 nM in experiment [2].

Take `O=c1c2c(F)cc(C3CC3)cc2ccn1-c1cccc(-c2ncnc3[nH]c(-c4ccc(O)cc4)cc23)c1CO`: the 50% inhibitory concentration (IC50) in experiment [1] was found to be 73.9 nM; in experiment [2], 211 nM.

In the case of `O=c1c2c(F)cc(C3CC3)cc2ccn1-c1cccc(-c2ncnc3[nH]ccc23)c1CO`, the IC50 is 1570 nM in experiment [1] and greater than 5000 nM in experiment [2].

For the molecule `CS(=O)(=O)N1CC=C(c2cc3c(-c4cccc(-n5ccc6cc(C7CC7)cc(F)c6c5=O)c4CO)ncnc3[nH]2)CC1`, the IC50 is 15.8 nM in experiment [1] and 7.9 nM in experiment [2].

For the molecule `O=c1c2c(F)cc(C3CC3)cc2ccn1-c1cccc(-c2ncnc3[nH]c(-c4cc[nH]n4)cc23)c1CO`, the IC50 was 38.8 nM in experiment [1] and 47 nM in experiment [2].

For the molecule `Cn1ccc(-c2cc3c(-c4cccc(-n5ccc6cc(C7CC7)cc(F)c6c5=O)c4CO)ncnc3[nH]2)n1`, the concentration for half-maximal inhibition (IC50) in experiment [1] was determined as 21.3 nM; in experiment [2] it was 38 nM.

For the molecule `O=c1c2c(F)cc(C3CC3)cc2ccn1-c1cccc(-c2ncnc3[nH]c(-c4ccc(CN5CCOCC5)cc4)cc23)c1CO`, the figures for the IC50 in experiment [1] and in experiment [2] were 63.6 nM and 12 nM, respectively.

Turning to `O=c1c2c(F)cc(C3CC3)cc2ccn1-c1cccc(-c2ncnc3[nH]c(C4=CCN(C5COC5)CC4)cc23)c1CO`, the IC50 turned out to be 24.8 nM in experiment [1] and 11 nM in experiment [2].

Consider `COc1ccc(-c2cc3c(-c4cccc(-n5ccc6cc(C7CC7)cc(F)c6c5=O)c4CO)ncnc3[nH]2)cn1`, for which the IC50 in experiment [1] came out at 197 nM; in experiment [2] it was 74 nM.

`COc1ccc(-c2cc3c(-c4cccc(-n5ccc6cc(C7CC7)cc(F)c6c5=O)c4CO)ncnc3[nH]2)cc1`: the IC50 was 58.3 nM in experiment [1] and 38.8 nM in experiment [2].

Consider `CNC(=O)N1CC=C(c2cc3c(-c4cccc(-n5ccc6cc(C7CC7)cc(F)c6c5=O)c4CO)ncnc3[nH]2)CC1`, for which the figures for the IC50 in experiment [1] and in experiment [2] were 25.2 nM and 51.3 nM, respectively.

As for `O=C(c1ccc(-c2cc3c(-c4cccc(-n5ccc6cc(C7CC7)cc(F)c6c5=O)c4CO)ncnc3[nH]2)cc1)N1CCOCC1`, the results for the IC50 in experiment [1] and in experiment [2] were 18.2 nM and 10 nM, respectively.

`CC(=O)c1cc(-c2cc3c(-c4cccc(-n5ccc6cc(C7CC7)cc(F)c6c5=O)c4CO)ncnc3[nH]2)cs1`: the half-inhibitory concentration (IC50) is 119 nM in experiment [1] and 58 nM in experiment [2].

For the molecule `CN1CC=C(c2cc3c(-c4cccc(-n5ccc6cc(C7CC7)cc(F)c6c5=O)c4CO)ncnc3[nH]2)CC1`, the IC50 in experiment [1] was 57.1 nM; in experiment [2], 125 nM.

As for `O=c1c2c(F)cc(C3CC3)cc2ccn1-c1cccc(-c2ncnc3[nH]c(C4=CCCCC4)cc23)c1CO`, the IC50 in experiment [1] stood at 77.8 nM; in experiment [2], 350 nM.

Consider `CC(=O)c1ccc(-c2cc3c(-c4cccc(-n5ccc6cc(C7CC7)cc(F)c6c5=O)c4CO)ncnc3[nH]2)cc1`, for which the IC50 in experiment [1] was found to be 41.7 nM; in experiment [2] it was 49 nM.

For `CN(C)C(=O)N1CC=C(c2cc3c(-c4cccc(-n5ccc6cc(C7CC7)cc(F)c6c5=O)c4CO)ncnc3n2C)CC1`, the IC50 in experiment [1] and in experiment [2] was greater than 5000 nM each time.

For the molecule `CN(C)C(=O)N1CC=C(c2cc3c(-c4cccc(-n5ccc6cc(C7CC7)cc(F)c6c5=O)c4CO)ncnc3[nH]2)CC1`, the IC50 in experiment [1] was found to be 7 nM; in experiment [2], 21.6 nM.

Consider `O=c1c2c(F)cc(C3CC3)cc2ccn1-c1cccc(-c2ncnc3[nH]c(C4=CCNCC4)cc23)c1CO`, for which the IC50 in experiment [1] was found to be 32.5 nM; in experiment [2] it was 96.5 nM.

In the case of `CN(C)S(=O)(=O)N1CC=C(c2cc3c(-c4cccc(-n5ccc6cc(C7CC7)cc(F)c6c5=O)c4CO)ncnc3[nH]2)CC1`, the IC50 in experiment [1] was found to be 16.5 nM; in experiment [2], 26 nM.

`CN(C)C(=O)N1CCC(c2cc3c(-c4cccc(-n5ccc6cc(C7CC7)cc(F)c6c5=O)c4CO)ncnc3[nH]2)CC1`: the IC50 in experiment [1] worked out at 574 nM; in experiment [2], 1650 nM.

For the molecule `CN(C)Cc1ccc(-c2cc3c(-c4cccc(-n5ccc6cc(C7CC7)cc(F)c6c5=O)c4CO)ncnc3[nH]2)cc1`, the IC50 in experiment [1] worked out at 31.6 nM; in experiment [2] it was 33 nM.

`O=c1c2c(F)cc(C3CC3)cc2ccn1-c1cccc(-c2ncnc3[nH]c(-c4ccccc4)cc23)c1CO`: the values for the IC50 in experiment [1] and in experiment [2] were 90.3 nM and 79 nM, respectively.

As for `O=C(c1ccc(-c2cc3c(-c4cccc(-n5ccc6cc(C7CC7)cc(F)c6c5=O)c4CO)ncnc3[nH]2)cc1)N1CCCCC1`, the IC50 turned out to be 50.8 nM in experiment [1] and 65 nM in experiment [2].

Regarding `CN(C)C(=O)c1ccc(-c2cc3c(-c4cccc(-n5ccc6cc(C7CC7)cc(F)c6c5=O)c4CO)ncnc3[nH]2)cc1`, the IC50 in experiment [1] was 17.8 nM; in experiment [2], 15 nM.

In the case of `Nc1cccc(-c2cc3c(-c4cccc(-n5ccc6cc(C7CC7)cc(F)c6c5=O)c4CO)ncnc3[nH]2)c1`, the IC50 in experiment [1] turned out to be 136 nM; in experiment [2], 65 nM.

As for `O=c1c2c(F)cc(C3CC3)cc2ccn1-c1cccc(-c2ncnc3[nH]c(C4=CCSCC4)cc23)c1CO`, the concentration for half-maximal inhibition (IC50) turned out to be 67.1 nM in experiment [1] and 46 nM in experiment [2].

In the case of `O=C(N1CC=C(c2cc3c(-c4cccc(-n5ccc6cc(C7CC7)cc(F)c6c5=O)c4CO)ncnc3[nH]2)CC1)N1CCOCC1`, the IC50 in experiment [1] was 4.8 nM; in experiment [2], 17 nM.

`CN(C)C(=O)c1cc2c(-c3cccc(-n4ccc5cc(C6CC6)cc(F)c5c4=O)c3CO)ncnc2[nH]1`: the results for the IC50 in experiment [1] and in experiment [2] were 1360 nM and 1560 nM, respectively.
